The values below come from PubChem BioAssay AID1508603 (National Center for Advancing Translational Sciences (NCATS), 2020).

Each structure is given as a SMILES string. Some results are limits rather than exact numbers.

For this data set, the system named is human liver cytosol stability, half-life. The data set is described as follows: NCATS Human Liver Cytosol Stability Profiling. The following applies: higher = more stable. The method, then: Assay submitter (PI): Pranav Shah Ph.D.
NIH Center for Advancing Translational Sciences
Over the last few decades, chemists have become skilled at designing compounds that avoid cytochrome P (CYP) 450 mediated metabolism. Typical screening assays are performed in liver microsomal fractions and it is possible to overlook the contribution of cytosolic enzymes until much later in the drug discovery process. Few data exist on cytosolic enzyme-mediated metabolism and no reliable tools are available to chemists to help design away from such liabilities. In this study, we screened 1450 compounds for liver cytosol-mediated metabolic stability and extracted transformation rules that might help medicinal chemists in optimizing compounds with these liabilities. […] Matched molecular pairs analysis was performed in conjunction with qualitative-structure activity relationship modeling to identify chemical structure transformations affecting cytosolic stability. The transformation rules were prospectively validated on the test set. In addition, selected rules were validated on a diverse chemical library and the resulting pairs were experimentally tested to confirm whether the identified transformations could be generalized. The validation results, comprising nearly 250 library compounds and corresponding half-life data, are made publicly available. The datasets were also used to generate in silico classification models, based on different molecular descriptors and machine learning methods, to predict cytosol-mediated liabilities. To the best of our knowledge, this is the first systematic in silico effort to address cytosolic enzyme-mediated liabilities (Shah 2020).
Shah, P., Siramshetty, V.B., Zakharov, A.V. et al. Predicting liver cytosol stability of small molecules. J Cheminform 12, 21 (2020). https://doi.org/10.1186/s13321-020-00426-7
Compounds are classified as unstable (t 1/2 < 30 min) or stable (t 1/2 > 30 min).
1. Shah, P. et al. An Automated High-Throughput Metabolic Stability Assay Using an Integrated High-Resolution Accurate Mass Method and Automated Data Analysis Software. Drug Metab Dispos 44, 1653-1661 (2016). PMID 27417180
A word on the half-life: it is the time in which the quantity being followed falls by half. In the case of `CC1(c2ccccc2)N(Cc2ccccc2)C(=O)OC12CCN(Cc1cccc(C#N)c1)CC2` (stereo not drawn), the half-life is more than 2 h.
As for `O=C(c1ccsc1)N1CCC(Oc2ccccc2)C1` (stereo not drawn), the figure is 0.667 h.
`COc1cccc(CN2CCC3(CC2)OCCN(C)C3=O)c1`: the half-life is more than 2 h.
`COCCOC1CCN(C(=O)Nc2ccccc2)CC1`: the half-life is more than 2 h.
For `Fc1cccc(Nc2ncc(-c3cncnc3)c3c2OCC3)c1`, the half-life is more than 2 h.
In the case of `CCOCCOC1CCN(C(=O)Nc2cccc(F)c2)CC1`, the half-life was more than 2 h.
As for `Fc1cccc(-c2cnc(Nc3cccnc3)c3c2CCO3)c1`, the figure is more than 2 h; as for `N#Cc1cccc(-c2c(C(=O)N3CCCCC3)nc3sccn23)c1`, 1.72 h.
As for `CCN1CCN(C(=O)c2cc(-c3ccc(F)cc3)nc3c2cnn3C)CC1`, the figure is more than 2 h.
On to `N#Cc1cccc(CN2CCOC[C@H](O)C2)c1`, for which the half-life was found to be 0.852 h.
Compound `COc1ccc(C(=O)N2C[C@@H](CO)[C@H](N(C)C)C2)cc1` returned a half-life of more than 2 h.
To `N#Cc1ccc(CN2CCC(N3Cc4cccn4C3=O)CC2)cc1` belongs more than 2 h; to `Cc1cc(F)ccc1OC1CN(Cc2ccc(C#N)cc2)C1`, 0.59 h.
As for `CN1CCOC2(CCN(Cc3cccc(C#N)c3)CC2)C1=O`, the figure is more than 2 h.
Compound `COc1cccc(CN2CC[C@H](c3nnc(-c4ccco4)o3)C2)c1` displayed a half-life of 1.97 h.
In the case of `O=C(N1CCN(S(=O)(=O)c2cccc(F)c2)CC1)N1CC2CC(C1)[C@H]1CCCC(=O)N1C2` (stereo partly drawn), the half-life was more than 2 h.
As for `N#Cc1cncc(N2CC3CCC(C2)N3CC(F)(F)F)c1`, the figure is more than 2 h; as for `N#Cc1cccc(CN2CC[C@H](c3nnc(-c4ccco4)o3)C2)c1`, more than 2 h; as for `CN1CCN(C(=O)c2ccc3nccn3c2)CC1`, more than 2 h.
Compound `Cc1ccccc1-c1[nH]nc2ncc(-c3ccccc3C#N)nc12` yielded a half-life of more than 2 h.
`N#Cc1cccc(CN2CCOC[C@H]2c2ncc(-c3ccc(F)cc3)[nH]2)c1` yielded a half-life of 1.58 h.
To `COCCNc1nc(N)nc2c1CCN(C(=O)c1cscn1)CC2` belongs more than 2 h; to `N#Cc1ccc(CN2CCC3(C2)NC(=O)c2ccccc2O3)cc1` (stereo not drawn), more than 2 h.
The compound `O=C(c1cccc(F)c1)N1CCC(Oc2cccnc2)C1` (stereo not drawn) showed a half-life of more than 2 h.
As for `Cn1ccc(NC(=O)c2ccc(-c3ncc4cnc(-c5cccc(F)c5)cn34)cc2)n1`, the half-life worked out at 0.553 h.
Regarding `COc1ccc(CN2CCC(N3Cc4cccn4C3=O)CC2)cc1`, the half-life was more than 2 h.
Compound `CN(Cc1ccccc1)C1CCOc2ccccc21` (stereo not drawn) had a half-life of 0.127 h.
In the case of `O=C(c1ccoc1)N1CCC(Oc2ccccc2)C1` (stereo not drawn), the half-life was more than 2 h.
As to `COc1ccc(-c2[nH]nc3ncc(-c4cccc(F)c4)nc23)c(C)c1`, the half-life was 1.26 h.
`O=C(c1ccc(-c2ncc3cnc(-c4cccc(F)c4)cn23)cc1)N1CCc2cccnc21` gave a half-life of 0.288 h.
As to `Fc1cccc(-c2cnc([C@@H]3COCCN3Cc3cnc[nH]3)[nH]2)c1`, the half-life worked out at 0.988 h.
As for `CN1c2cc(C(=O)Nc3ccc(C#N)cc3)ccc2C(=O)N2CCCCC21` (stereo not drawn), the half-life is more than 2 h.
As for `COc1ccccc1-c1[nH]nc2ncc(-c3cccc(F)c3)nc12`, the figure is more than 2 h; as for `CCN1CCN(C(=O)Cc2cccn2-c2ccc(F)cc2)CC1`, more than 2 h.
To `Cc1noc(C)c1-c1cc(-c2cccc(F)c2)cn2cncc12` belongs 1.5 h; to `N#Cc1ccc(CN2CCC(N3CCNC3=O)CC2)cc1`, 1.55 h; to `COc1ccc(CN2CC(Oc3ccc(F)c(F)c3)C2)cc1`, 0.5 h.
In turn, `Fc1cccc(Nc2ncc(-c3cccnc3)c3c2OCC3)c1` showed a half-life of 1.28 h.
Compound `C[C@@]1(O)CCN(Cc2ccc(C#N)cc2)C[C@H]1N1CCCC1` showed a half-life of more than 2 h.
`Cc1cc2cc(-c3c(C)noc3C)nc(Nc3cccc(F)c3)c2o1` registered a half-life of 0.137 h.
For the compound `COc1cccc(-c2cn3c(n2)N(C(=O)c2ccco2)CCC3)c1`, the half-life was found to be 0.993 h.
As for `CC(=O)N1CCC(Cc2ccc(C(=O)O)cc2)CC1`, the figure is more than 2 h; as for `O=C(c1cccnc1)N1CCC(Oc2cccc(F)c2)C1` (stereo not drawn), more than 2 h.
As for `CCN1CCN(C(=O)C2Cn3cccc3C(=O)N2CC(C)C)CC1` (stereo not drawn), the half-life was more than 2 h.
For the compound `Cn1cnc2ccc(Nc3cccc(F)c3)nc2c1=O`, the half-life was determined as 1.92 h.
As to `COCCOC1CCN(C(=O)Nc2cccc(F)c2)CC1`, the half-life is more than 2 h.
To `O=C(Nc1cnc(-c2ccccc2)nc1)c1cccc(F)c1` belongs 0.867 h.
In turn, `N#Cc1cccc(-c2c(C(=O)NC3CC3)nc3sccn23)c1` had a half-life of 1.59 h.
The compound `Cc1cc(OC2CN(Cc3ccc(C#N)cc3)C2)ccc1F` displayed a half-life of 0.73 h.
`O=C(NCCCn1ccnc1)c1ccc(-c2ncc3cnc(-c4cccc(F)c4)cn23)cc1` gave a half-life of 0.847 h.
As for `N#Cc1ccccc1CN1CCC2(CC1)CC(O)CCO2` (stereo not drawn), the figure is 1.34 h; as for `CCN1CCN(C(=O)c2cc(-c3ccccc3OC)c3nncn3n2)CC1`, more than 2 h; as for `N#Cc1ccc(CN2CC(Oc3ccc(F)cc3F)C2)cc1`, 1.05 h.
As for `CN1CCN(C(=O)c2cc(-c3cccnc3)nc3c2cnn3C)CC1`, the figure is more than 2 h; as for `Cc1nnc([C@H]2CCN(Cc3ccc(C#N)cc3)C2)o1`, more than 2 h; as for `COc1ccc(CN2CC(Oc3ccc(F)cc3C)C2)cc1`, 0.35 h.
Regarding `CCOc1cc(=O)n2c(c1C(=O)Nc1ccc(C#N)cc1)CCCC2`, the half-life was 1.69 h.
On to `O=C(O)c1ccc(CN2CC(COc3ccccc3)C3(C2)CN(c2ccccc2)C3)cc1` (stereo not drawn), for which the half-life was more than 2 h.
